Assay results reported in ChEMBL document CHEMBL6087443, “3-Halo-3-nitro-aza/thioflavanones: DNMT inhibitors with a two-site binding mode in the hDNMT3A catalytic pocket” (Bioorg Med Chem, 2025).
Activity calls are given as the source filed them. The calls are words filed in the database; no cut-off is given here.

Columns and labels:
[1] = target: DNA (cytosine-5)-methyltransferase 3A (Homo sapiens) (UniProt Q9Y6K1); assay: Inhibition of hDNMT3A-c using SAM and oligonucleotide with CpG site at 10 uM incubated for 2 hrs by fluorescence-based assay relative to control
[2] = target: DNA (cytosine-5)-methyltransferase 3A (Homo sapiens) (UniProt Q9Y6K1); assay: Inhibition of hDNMT3A-c using SAM and oligonucleotide with CpG site at 32 uM incubated for 2 hrs by fluorescence-based assay relative to control
[3] = Stability of compound in DNMT methylation buffer by HPLC analysis; type: physicochemical
[4] = Stability of the compound in HEPES buffer incubated for 2 hrs by measuring inhibition of DNMT (unknown origin) at 10 uM by HPLC analysis; type: physicochemical
[5] = Stability of the compound at pH 5.3; type: physicochemical; conditions: buffer
[6] = Stability of the compound in HEPES buffer incubated for 2 hrs by measuring inhibition of DNMT (unknown origin) at 32 uM by HPLC analysis; type: physicochemical

Chain of DNA (cytosine-5)-methyltransferase 3A (Homo sapiens) (Q9Y6K1 whole entry, looked up): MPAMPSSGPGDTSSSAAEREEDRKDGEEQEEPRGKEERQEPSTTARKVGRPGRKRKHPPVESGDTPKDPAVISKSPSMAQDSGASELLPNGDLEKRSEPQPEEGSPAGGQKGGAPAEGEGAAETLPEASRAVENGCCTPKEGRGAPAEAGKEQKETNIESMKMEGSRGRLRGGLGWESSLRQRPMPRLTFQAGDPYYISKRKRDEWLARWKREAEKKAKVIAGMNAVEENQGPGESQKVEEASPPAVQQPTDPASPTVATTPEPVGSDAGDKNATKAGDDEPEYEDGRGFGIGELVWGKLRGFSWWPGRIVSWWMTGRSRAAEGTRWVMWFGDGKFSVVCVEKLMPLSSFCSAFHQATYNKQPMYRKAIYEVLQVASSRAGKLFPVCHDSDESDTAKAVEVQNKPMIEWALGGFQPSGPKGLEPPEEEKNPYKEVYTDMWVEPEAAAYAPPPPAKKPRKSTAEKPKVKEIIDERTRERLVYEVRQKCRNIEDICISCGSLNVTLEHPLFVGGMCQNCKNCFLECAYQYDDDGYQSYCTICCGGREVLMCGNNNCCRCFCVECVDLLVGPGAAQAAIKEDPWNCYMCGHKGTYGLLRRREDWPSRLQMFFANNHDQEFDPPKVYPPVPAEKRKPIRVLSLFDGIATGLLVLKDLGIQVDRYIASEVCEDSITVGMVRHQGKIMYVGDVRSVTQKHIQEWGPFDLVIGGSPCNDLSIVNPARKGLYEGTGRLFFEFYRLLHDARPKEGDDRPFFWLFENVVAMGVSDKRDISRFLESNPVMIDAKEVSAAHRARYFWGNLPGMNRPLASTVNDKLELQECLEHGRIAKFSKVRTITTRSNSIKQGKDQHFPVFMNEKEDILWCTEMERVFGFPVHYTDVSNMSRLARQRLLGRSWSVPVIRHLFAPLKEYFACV

Compound	inhibition [1]	inhibition [2]	half-life [3]	Stability [4]	Stability [5]	Stability [6]
COc1cccc(C2Nc3ccccc3C(=O)C2[N+](=O)[O-])c1 (stereo unspecified)	inactive	inactive				
O=C1c2ccccc2NC(c2ccccc2)C1[N+](=O)[O-] (stereo unspecified)	inactive	inactive				
COc1cccc(C2Nc3ccccc3C(=O)C2(Cl)[N+](=O)[O-])c1 (racemic)	42%	56%	138 min			
O=C1c2ccccc2NC(c2ccccc2)C1(Br)[N+](=O)[O-] (racemic)	55%	89%	18 min			
COc1cccc(C2Nc3ccccc3C(=O)C2(Br)[N+](=O)[O-])c1 (racemic)	59%	100%	42 min	Unstable	Stable	Unstable
O=C1c2ccccc2S[C@@H](c2ccccc2)[C@@]1(Br)[N+](=O)[O-] (relative stereo)	42%	68%	12 min			
O=C1c2ccccc2S[C@@H](c2ccccc2)[C@]1(Br)[N+](=O)[O-] (relative stereo)	51%	86%	72 min			
O=C1c2ccccc2S[C@H](c2cccc([N+](=O)[O-])c2)[C@@]1(Br)[N+](=O)[O-] (relative stereo)	27%	59%	54 min			
O=C1c2ccccc2S[C@@H](c2ccccc2F)[C@]1(Br)[N+](=O)[O-] (relative stereo)	32%	67%	48 min			
O=C1c2ccccc2S[C@@H](c2cccc(C(F)(F)F)c2)[C@@]1(Br)[N+](=O)[O-] (relative stereo)	35%	63%	12 min			
O=C1c2ccccc2S[C@@H](c2cccc(C(F)(F)F)c2)[C@]1(Br)[N+](=O)[O-] (relative stereo)	34%	78%	192 min			
O=C1c2ccccc2S[C@@H](c2ccccc2F)[C@@]1(Br)[N+](=O)[O-] (relative stereo)	42%	67%	66 min			
O=C1c2ccccc2O[C@@H](c2ccccc2)[C@]1(Br)[N+](=O)[O-] (relative stereo)	69%	92%				
O=C1c2ccccc2O[C@@H](c2ccccc2[N+](=O)[O-])[C@]1(Cl)[N+](=O)[O-] (relative stereo)	69%	84%				
